Values after ≈ are worked out from the molar mass of the structure shown.
What follows are compounds tested on Staphylococcus aureus (Isolate ID ATCC 29213) (assay: Bacterial assay: MIC by broth microdilution or agar dilution (CLSI), S. aureus ATCC 29213). Conditions: S. aureus (ATCC29213).
Type: cell-based
Procedure: Compounds are tested for antimicrobial activity by susceptibility testing in liquid or on solid media. Minimum inhibitory concentrations (MICs) for compounds against each strain are determined by the broth microdilution or agar dilution method according to the guidelines of the Clinical Laboratories and Standards Institute, formerly the National Committee for Clinical Laboratory Standards (Clinical Laboratories and Standards Institute. Methods for Dilution Antimicrobial Susceptibility Tests for Bacteria That Grow Aerobically; Approved Standard—Seventh Edition. Document M7-A7. CLSI, Wayne, Pa., 2006; Clinical Laboratories and Standards Institute). The bacterial strains tested include S. aureus (Staphylococcus aureus (Isolate ID ATCC 29213)) and an FtsZ mutant of this isolate (FtsZ-G196A Staphylococcus aureus (Isolate ID GG/190723/sa/1.2)). Compound MICs were determined to be in the following activity ranges “A” activity≦0.25 μg/mL; “B” activity>0.25 μg/mL-1.0 μg/mL; “C” activity>1.0 μg/mL-16 μg/mL; “D” activity>16 μg/mL and ND=not determined. The bracketed entries indicate entantiomer(s) and their activity.

NC(=O)c1c(F)ccc(OC(CCC(O)CO)c2nc(-c3ccc(C(F)(F)F)cc3)c(Br)o2)c1F (single isomer, unassigned) [Compound 128, 3-((1-(5-bromo-4-(4-(trifluoromethyl)phenyl)oxazol-2-yl)-4,5-dihydroxypentyl)oxy)-2,6-difluorobenzamide (mixture of two diastereomeric pairs of enantiomers)] was tested, and the “S. aureus MIC (μg/mL) Activity Range” value was “B (activity>0.25 μg/mL-1.0 μg/mL)”.

Same assay, conditions: Staphylococcus aureus, ATCC29213, read-out: S. aureus MIC (μg/mL) Activity Range, S. aureus (ATCC29213)

Compared with CC(Oc1ccc(F)c(C(N)=O)c1F)c1nc(-c2ccc(Cl)cc2)c(Br)o1 (stereo not drawn) [Compound 1], CCC(Oc1ccc(F)c(C(N)=O)c1F)c1nc(-c2ccc(Cl)cc2)c(Br)o1 (stereo not drawn) [Compound 18, 3-(1-(5-bromo-4-(4-chlorophenyl)oxazol-2-yl)propoxy)-2,6-difluorobenzamide] is higher in MIC: under 0.25 µg/mL for the first, 1 to 16 µg/mL (≈ 2.12 to 33.9 µM) for the second.

CC(Oc1ccc(F)c(C(N)=O)c1F)c1nc(Br)cs1 (stereo not drawn) [Compound 2, 3-(1-(4-bromothiazol-2-yl)ethoxy)-2,6-difluorobenzamide] and CC(Oc1ccc(F)c(C(N)=O)c1F)c1nc(Br)c(Cl)s1 (stereo not drawn) [Compound 24] fall in the same range of MIC: 1 to 16 µg/mL (≈ 2.75 to 44.1 µM) for the first, 1 to 16 µg/mL (≈ 2.51 to 40.2 µM) for the second.

COc1ncc(-c2csc(C(C)Oc3ccc(F)c(C(N)=O)c3F)n2)s1 (stereo not drawn) [Compound 3] and CCOc1ncc(-c2csc(C(C)Oc3ccc(F)c(C(N)=O)c3F)n2)s1 (stereo not drawn) [Compound 14] cannot be ordered by MIC: under 0.25 µg/mL for the first, under 0.25 µg/mL for the second.

First: CC(Oc1ccc(F)c(C(N)=O)c1F)c1nc(-c2ccc(Cl)cc2)co1 (stereo not drawn) [Compound 4]
Second: NC(=O)c1c(F)ccc(OC(CO)c2nc(-c3ccc(Cl)cc3)co2)c1F (stereo not drawn) [Compound 10, 3-(1-(4-(4-chlorophenyl)oxazol-2-yl)-2-hydroxyethoxy)-2,6-difluorobenzamide]
The MIC of the first is lower: 1 to 16 µg/mL (≈ 2.64 to 42.2 µM) for the first, over 16 µg/mL for the second.

First: CCOC(=O)C(Oc1ccc(F)c(C(N)=O)c1F)c1nc(-c2ccc(Cl)cc2)co1 (stereo not drawn) [Compound 6, ethyl 2-(3-carbamoyl-2,4-difluorophenoxy)-2-(4-(4-chlorophenyl)oxazol-2-yl)acetate]
Second: NC(=O)c1c(F)ccc(OC(C(=O)O)c2nc(-c3ccc(Cl)cc3)co2)c1F (stereo not drawn) [Compound 12, 2-(3-carbamoyl-2,4-difluorophenoxy)-2-(4-(4-chlorophenyl)oxazol-2-yl)acetic acid]
The MIC of the first is lower: 1 to 16 µg/mL (≈ 2.29 to 36.6 µM) for the first, over 16 µg/mL for the second.

First: C=CCc1oc(C(C)Oc2ccc(F)c(C(N)=O)c2F)nc1-c1ccc(Cl)cc1 (stereo not drawn) [Compound 7]
Second: C=CCc1oc(C(CC)Oc2ccc(F)c(C(N)=O)c2F)nc1-c1ccc(Cl)cc1 (stereo not drawn) [Compound 22, 3-(1-(5-allyl-4-(4-chlorophenyl)oxazol-2-yl)propoxy)-2,6-difluorobenzamide]
The MIC of the first is lower: 0.25 to 1 µg/mL (≈ 0.597 to 2.39 µM) for the first, 1 to 16 µg/mL (≈ 2.31 to 37 µM) for the second.

Compared with CCCc1oc(C(C)Oc2ccc(F)c(C(N)=O)c2F)nc1-c1ccccc1 (stereo not drawn) [Compound 8], CCCc1oc(C(C)Oc2ccc(F)c(C(N)=O)c2F)nc1-c1ccc(Cl)cc1 (stereo not drawn) [Compound 19] is lower in MIC: 1 to 16 µg/mL (≈ 2.59 to 41.4 µM) for the first, 0.25 to 1 µg/mL (≈ 0.594 to 2.38 µM) for the second.

C=CCc1oc(C(C)Oc2ccc(F)c(C(N)=O)c2F)nc1-c1ccc(OC)cc1 (stereo not drawn) [Compound 9] and CCCc1oc(C(C)Oc2ccc(F)c(C(N)=O)c2F)nc1-c1ccc(OC)cc1 (stereo not drawn) [Compound 15] fall in the same range of MIC: 0.25 to 1 µg/mL (≈ 0.603 to 2.41 µM) for the first, 0.25 to 1 µg/mL (≈ 0.6 to 2.4 µM) for the second.

Compared with CCOC(=O)C(Oc1ccc(F)c(C(N)=O)c1F)c1nc(-c2ccc(Cl)cc2)cs1 (stereo not drawn) [Compound 11, ethyl 2-(3-carbamoyl-2,4-difluorophenoxy)-2-(4-(4-chlorophenyl)thiazol-2-yl)acetate], NC(=O)c1c(F)ccc(OC(C(N)=O)c2nc(-c3ccc(Cl)cc3)cs2)c1F (stereo not drawn) [Compound 40, 3-(2-amino-1-(4-(4-chlorophenyl)thiazol-2-yl)-2-oxoethoxy)-2,6-difluorobenzamide] is higher in MIC: under 0.25 µg/mL for the first, 1 to 16 µg/mL (≈ 2.36 to 37.8 µM) for the second.

First: NC(=O)c1c(F)ccc(OC(CO)c2nc(-c3ccc(Cl)cc3)cs2)c1F (stereo not drawn) [Compound 13, 3-(1-(4-(4-chlorophenyl)thiazol-2-yl)-2-hydroxyethoxy)-2,6-difluorobenzamide]
Second: CNC(=O)C(Oc1ccc(F)c(C(N)=O)c1F)c1nc(-c2ccc(Cl)cc2)cs1 (stereo not drawn) [Compound 34, 3-(1-(4-(4-chlorophenyl)thiazol-2-yl)-2-(methylamino)-2-oxoethoxy)-2,6-difluorobenzamide]
The MIC of the first is higher: 0.25 to 1 µg/mL (≈ 0.609 to 2.43 µM) for the first, under 0.25 µg/mL for the second.

First: C=CCc1oc(C(C)Oc2ccc(F)c(C(N)=O)c2F)nc1-c1ccc(OC(F)(F)F)cc1 (stereo not drawn) [Compound 17, 3-(1-(5-allyl-4-(4-(trifluoromethoxy)phenyl)oxazol-2-yl)ethoxy)-2,6-difluorobenzamide]
Second: CCCc1oc(C(C)Oc2ccc(F)c(C(N)=O)c2F)nc1-c1ccc(OC(F)(F)F)cc1 (stereo not drawn) [Compound 20, 2,6-difluoro-3-(1-(5-propyl-4-(4-(trifluoromethoxy)phenyl)oxazol-2-yl)ethoxy)benzamide]
The MIC of the first is higher: 0.25 to 1 µg/mL (≈ 0.534 to 2.14 µM) for the first, under 0.25 µg/mL for the second.

Compared with CCCC(Oc1ccc(F)c(C(N)=O)c1F)c1nc(-c2ccc(Cl)cc2)c(Br)o1 (stereo not drawn) [Compound 23], NC(=O)c1c(F)ccc(OC(CO)c2nc(-c3ccc(Cl)cc3)c(Br)o2)c1F (stereo not drawn) [Compound 39, 3-(1-(5-bromo-4-(4-chlorophenyl)oxazol-2-yl)-2-hydroxyethoxy)-2,6-difluorobenzamide] is lower in MIC: 1 to 16 µg/mL (≈ 2.06 to 32.9 µM) for the first, under 0.25 µg/mL for the second.

First: CCOc1cc2nc(C(C)Oc3ccc(F)c(C(N)=O)c3F)sc2nc1Br (stereo not drawn) [Compound 25, 3-(1-(5-bromo-6-ethoxythiazolo[5,4-b]pyridin-2-yl)ethoxy)-2,6-difluorobenzamide]
Second: CCOc1cnc2sc(C(C)Oc3ccc(F)c(C(N)=O)c3F)nc2c1 (stereo not drawn) [Compound 29, 3-(1-(6-ethoxythiazolo[5,4-b]pyridin-2-yl)ethoxy)-2,6-difluorobenzamide]
The MIC of the first is lower: 0.25 to 1 µg/mL (≈ 0.546 to 2.18 µM) for the first, 1 to 16 µg/mL (≈ 2.64 to 42.2 µM) for the second.

Compared with CCCc1oc(C(CC)Oc2ccc(F)c(C(N)=O)c2F)nc1-c1ccc(Cl)cc1 (stereo not drawn) [Compound 26, 3-(1-(4-(4-chlorophenyl)-5-propyloxazol-2-yl)propoxy)-2,6-difluorobenzamide], CCCc1oc(C(CCC)Oc2ccc(F)c(C(N)=O)c2F)nc1-c1ccc(Cl)cc1 (stereo not drawn) [Compound 30] is higher in MIC: 0.25 to 1 µg/mL (≈ 0.575 to 2.3 µM) for the first, 1 to 16 µg/mL (≈ 2.23 to 35.6 µM) for the second.

Compared with C=CCc1oc(C(CCC)Oc2ccc(F)c(C(N)=O)c2F)nc1-c1ccc(Cl)cc1 (stereo not drawn) [Compound 28], NC(=O)c1c(F)ccc(OC(CO)c2nc(-c3ccc(Cl)cc3)c(Cl)o2)c1F (stereo not drawn) [Compound 47, 3-(1-(5-chloro-4-(4-chlorophenyl)oxazol-2-yl)-2-hydroxyethoxy)-2,6-difluorobenzamide] is lower in MIC: 1 to 16 µg/mL (≈ 2.24 to 35.8 µM) for the first, 0.25 to 1 µg/mL (≈ 0.582 to 2.33 µM) for the second.

CN(C)C(=O)C(Oc1ccc(F)c(C(N)=O)c1F)c1nc(-c2ccc(Cl)cc2)cs1 (stereo not drawn) [Compound 31, 3-(1-(4-(4-chlorophenyl)thiazol-2-yl)-2-(dimethylamino)-2-oxoethoxy)-2,6-difluorobenzamide] and CN1CCN(C(=O)C(Oc2ccc(F)c(C(N)=O)c2F)c2nc(-c3ccc(Cl)cc3)cs2)CC1 (stereo not drawn) [Compound 41, 3-(1-(4-(4-chlorophenyl)thiazol-2-yl)-2-(4-methylpiperazin-1-yl)-2-oxoethoxy)-2,6-difluorobenzamide] fall in the same range of MIC: 1 to 16 µg/mL (≈ 2.21 to 35.4 µM) for the first, 1 to 16 µg/mL (≈ 1.97 to 31.6 µM) for the second.

CC(Oc1ccc(F)c(C(N)=O)c1F)c1nc(-c2ccc(C(F)(F)F)cc2)c(Cl)o1 (stereo not drawn) [Compound 32] and NC(=O)c1c(F)ccc(OC(CO)c2nc(-c3ccc(C(F)(F)F)cc3)c(Cl)o2)c1F (stereo not drawn) [Compound 44, 3-(1-(5-chloro-4-(4-(trifluoromethyl)phenyl)oxazol-2-yl)-2-hydroxyethoxy)-2,6-difluorobenzamide] fall in the same range of MIC: 0.25 to 1 µg/mL (≈ 0.56 to 2.24 µM) for the first, 0.25 to 1 µg/mL (≈ 0.54 to 2.16 µM) for the second.

Compared with CC(Oc1ccc(F)c(C(N)=O)c1F)c1nc(-c2ccc(Cl)cc2)ns1 (stereo not drawn) [Compound 33, 3-(1-(3-(4-chlorophenyl)-1,2,4-thiadiazol-5-yl)ethoxy)-2,6-difluorobenzamide], CNC(=O)C(Oc1ccc(F)c(C(N)=O)c1F)c1nc(-c2ccc(Cl)cc2)c(Cl)o1 (stereo not drawn) [Compound 49, 3-(1-(5-chloro-4-(4-chlorophenyl)oxazol-2-yl)-2-(methylamino)-2-oxoethoxy)-2,6-difluorobenzamide] is higher in MIC: under 0.25 µg/mL for the first, 1 to 16 µg/mL (≈ 2.19 to 35.1 µM) for the second.

Compared with COc1ncc(-c2nc(C(C)Oc3ccc(F)c(C(N)=O)c3F)sc2Cl)s1 (stereo not drawn) [Compound 35], CC(Oc1ccc(F)c(C(N)=O)c1F)c1nc(-c2ccc(C(F)(F)F)cn2)c(Cl)o1 (stereo not drawn) [Compound 43] is higher in MIC: under 0.25 µg/mL for the first, 1 to 16 µg/mL (≈ 2.23 to 35.7 µM) for the second.

CC(=O)OCC(Oc1ccc(F)c(C(N)=O)c1F)c1nc(-c2ccc(Cl)cc2)c(Br)o1 (stereo not drawn) [Compound 36] and CC(=O)OCC(Oc1ccc(F)c(C(N)=O)c1F)c1nc(-c2ccc(Cl)cc2)c(Cl)o1 (stereo not drawn) [Compound 46, 2-(3-carbamoyl-2,4-difluorophenoxy)-2-(5-chloro-4-(4-chlorophenyl)oxazol-2-yl)ethyl acetate] fall in the same range of MIC: 0.25 to 1 µg/mL (≈ 0.485 to 1.94 µM) for the first, 0.25 to 1 µg/mL for the second.

CC(=O)OCC(Oc1ccc(F)c(C(N)=O)c1F)c1nc(-c2ccc(C(F)(F)F)cc2)c(Br)o1 (stereo not drawn) [Compound 37, 2-(5-bromo-4-(4-(trifluoromethyl)phenyl)oxazol-2-yl)-2-(3-carbamoyl-2,4-difluorophenoxy)ethyl acetate] and CC(=O)OCC(Oc1ccc(F)c(C(N)=O)c1F)c1nc(-c2ccc(C(F)(F)F)cc2)c(Cl)o1 (stereo not drawn) [Compound 42, 2-(3-carbamoyl-2,4-difluorophenoxy)-2-(5-chloro-4-(4-(trifluoromethyl)phenyl)oxazol-2-yl)ethyl acetate] fall in the same range of MIC: 0.25 to 1 µg/mL for the first, 0.25 to 1 µg/mL for the second.

CS(=O)(=O)OCC(Oc1ccc(F)c(C(N)=O)c1F)c1nc(-c2ccc(C(F)(F)F)cc2)c(Cl)o1 (stereo not drawn) [Compound 45, 2-(3-carbamoyl-2,4-difluorophenoxy)-2-(5-chloro-4-(4-(trifluoromethyl)phenyl)oxazol-2-yl)ethyl methanesulfonate] and CS(=O)(=O)OCC(Oc1ccc(F)c(C(N)=O)c1F)c1nc(-c2ccc(Cl)cc2)c(Cl)o1 (stereo not drawn) [Compound 48, 2-(3-carbamoyl-2,4-difluorophenoxy)-2-(5-chloro-4-(4-chlorophenyl)oxazol-2-yl)ethyl methanesulfonate] fall in the same range of MIC: 1 to 16 µg/mL for the first, 1 to 16 µg/mL for the second.

Reference: patent publication US9511073B2, “Aromatic amides and uses thereof” (TAXIS Pharmaceuticals, Inc., priority 2011, dated 2016)
